Reference: patent publication US20060135589A1, “1h-Indazole-3-carboxamide compounds as cyclin dependent kinase (cdk) inhibitors” (Astex Technology, Inc., priority 2002, published 2006)

What follows are compounds tested against T1, CDK2/CyclinA (Homo sapiens, UniProt P24941) (assay: Measurement of CDK2 kinase inhibitory activity (IC50), 33P-ATP / histone H1 filter assay).
T1 construct: purchased Upstate Biotechnology
Type: biochemical
Experimental: Measurement of CDK2 Kinase Inhibitory Activity (IC50)
Compounds of the invention were tested for kinase inhibitory activity using the following protocol.
1.7 μl of active CDK2/CyclinA (Upstate Biotechnology, 10 U/μl) is diluted in assay buffer (250 μl of 10× strength assay buffer (200 mM MOPS pH 7.2, 250 mM β-glycerophosphate, 50 mM EDTA, 150 mM MgCl2), 11.27 μl 10 mM ATP, 2.5 μl 1M DTT, 25 μl 100 mM sodium orthovanadate, 708.53 μl H2O), and 10 μl mixed with 10 μl of histone substrate mix (60 μl bovine histone H1 (Upstate Biotechnology, 5 mg/ml), 940 μl H2O, 35 μCi γ^33P-ATP) and added to 96 well plates along with 5 μl of various dilutions of the test compound in DMSO (up to 2.5%). The reaction is allowed to proceed for 5 hours before being stopped with an excess of ortho-phosphoric acid (30 μl at 2%).
γ^33P-ATP which remains unincorporated into the histone H1 is separated from phosphorylated histone H1 on a Millipore MAPH filter plate. The wells of the MAPH plate are wetted with 0.5% orthophosphoric acid, and then the results of the reaction are filtered with a Millipore vacuum filtration unit through the wells. Following filtration, the residue is washed twice with 200 μl of 0.5% orthophosphoric acid. Once the filters have dried, 25 μl of Microscint 20 scintillant is added, and then counted on a Packard Topcount for 30 seconds.
For `CS(=O)(=O)c1cccc(NC(=O)c2n[nH]c3ccc([N+](=O)[O-])cc23)c1` [Example 78], the inhibition at 50 µM was no less than 50%.
`O=C(Nc1ccccc1)c1n[nH]c2ccc([N+](=O)[O-])cc12` [Example 55] was tested, and the inhibition at 50 µM was no less than 50%.
Work on `CNS(=O)(=O)Cc1ccc(NC(=O)c2n[nH]c3ccc(NC(=O)NCCCl)cc23)cc1` [Example 63, 5-[3-(2-Chloro-ethyl)-ureido]-1H-indazole-3-carboxylic acid (4-methylsulphamoylmethyl-phenyl)-amide] yielded an inhibition at 50 µM of no less than 50%.
`CCCCNC(=O)NS(=O)(=O)c1ccc(NC(=O)c2n[nH]c3ccccc23)cc1` [Example 35] was tested, and the inhibition at 50 µM was no less than 50%.
`CNS(=O)(=O)Cc1ccc(NC(=O)c2n[nH]c3ccc(-c4nccs4)cc23)cc1` [Example 29, 5-Thiazol-2-yl-1H-indazole-3-carboxylic acid (4-methylsulphamoylmethyl-phenyl)-amide] was tested, and the inhibition at 50 µM was no less than 50%.
`CC(C)(C)OC(=O)N1CCC(NC(=O)c2n[nH]c3ccccc23)CC1` [Example 57] gave an inhibition at 50 µM of no less than 50%.
`O=C(NCc1ccccc1)c1n[nH]c2ccc(Cl)cc12` [Example 45] showed an inhibition at 50 µM of no less than 50%.
`O=C(Nc1ccccc1)c1n[nH]c2ccc(F)cc12` [Example 80] gave an inhibition at 50 µM of no less than 50%.
In the case of `O=C(Nc1ccc(F)cc1)c1n[nH]c2cc(Br)ccc12` [Example 73, 6-Bromo-1H-indazole-3-carboxylic acid (4-fluoro-phenyl)-amide], the inhibition at 50 µM is reported as no less than 50%.
Work on `O=C(Nc1ccc[nH]c1=O)c1n[nH]c2ccc(I)cc12` [Example 53] yielded an inhibition at 50 µM of no less than 50%.
In the case of `CCOC(=O)N1CCC(NC(=O)c2n[nH]c3ccc([N+](=O)[O-])cc23)CC1` [Example 34], the inhibition at 50 µM is reported as no less than 50%.
`CNS(=O)(=O)Cc1ccc(NC(=O)c2n[nH]c3ccc(-c4cccs4)cc23)cc1` [Example 21, 5-Thiophen-2-yl-1H-indazole-3-carboxylic acid (4-methylsulphamoylmethyl-phenyl)-amide] showed an inhibition at 50 µM of no less than 50%.
`O=C(Nc1ccc([N+](=O)[O-])cn1)c1n[nH]c2ccc(I)cc12` [Example 16, N-(5-nitro-pyridin-2-yl)-5-Iodo-1H-indazole-3-carboxamide] showed an inhibition at 50 µM of no less than 50%.
Work on `O=C(NC1CCN(Cc2ccccc2)C1)c1n[nH]c2ccc(Cl)cc12` (stereo not shown) [Example 37] yielded an inhibition at 50 µM of no less than 50%.
Compound `O=C(Nc1cccc(-c2cnco2)c1)c1n[nH]c2ccccc12` [Example 7, N-[3-(oxazol-5-yl)phenyl)-1H-indazole-3-carboxamide] has an inhibition at 50 µM of no less than 50%.
With `CC(=O)N1CCC(NC(=O)c2n[nH]c3ccccc23)CC1` [Example 68, 1H-Indazole-3-carboxylic acid (1-acetyl-piperidin-4-yl)-amide] the inhibition at 50 µM was no less than 50%.
Work on `CS(=O)(=O)c1cccc(NC(=O)c2n[nH]c3ccccc23)c1` [Example 9, N-[3-methanesulphonylphenyl]-1H-indazole-3-carboxamide] yielded an inhibition at 50 µM of no less than 50%.
With `CCc1nnc(NC(=O)c2n[nH]c3ccc(Cl)cc23)s1` [Example 51] the inhibition at 50 µM was no less than 50%.
Work on `O=C(NC1CCNCC1)c1n[nH]c2ccc(I)cc12` [Example 64, 5-Iodo-1H-indazole-3-carboxylic acid piperidin-4-ylamide] yielded an inhibition at 50 µM of no less than 50%.
`CS(=O)(=O)N1CCC(NC(=O)c2n[nH]c3ccccc23)CC1` [Example 69, 1H-Indazole-3-carboxylic acid (1-methanesulphonyl-piperidin-4-yl)-amide] showed an inhibition at 50 µM of no less than 50%.
`O=C(Nc1cccc(-c2nnn[nH]2)c1)c1n[nH]c2ccc(Cl)cc12` [Example 75] gave an inhibition at 50 µM of no less than 50%.
`O=C(Nc1ccc(N2CCCC2=O)cc1)c1n[nH]c2ccccc12` [Example 6, N-[4-(2-oxopyrrolidin-1-yl)phenyl]-1H-indazole-3-carboxamide] gave an inhibition at 50 µM of no less than 50%.
With `O=C(NC1CCNCC1)c1n[nH]c2ccccc12` [Example 67, 1H-Indazole-3-carboxylic acid piperidin-4-ylamide] the inhibition at 50 µM was no less than 50%.
Compound `COC(=O)N1CCC(NC(=O)c2n[nH]c3ccc(Cl)cc23)C1` (stereo not shown) [Example 81, 3-[(5-Chloro-1H-indazole-3-carbonyl)-amino]-pyrrolidine-1-carboxylic acid methyl ester] has an inhibition at 50 µM of no less than 50%.
`COc1ccc(NC(=O)c2n[nH]c3ccc(I)cc23)cn1` [Example 39] gave an inhibition at 50 µM of no less than 50%.
For `O=C(Nc1ccc(F)cc1)c1n[nH]c2cccc(Br)c12` [Example 71, 4-Bromo-1H-indazole-3-carboxylic acid (4-fluoro-phenyl)-amide], the inhibition at 50 µM was no less than 50%.
`CNS(=O)(=O)Cc1ccc(NC(=O)c2n[nH]c3ccc(I)cc23)cc1` [Example 13] was tested, and the inhibition at 50 µM was no less than 50%.
`CN1CCN(c2ccc(CNC(=O)c3n[nH]c4ccc(Cl)cc34)cc2)CC1` [Example 46] gave an inhibition at 50 µM of no less than 50%.
`O=C(Nc1cccc(-c2nnn[nH]2)c1)c1n[nH]c2ccccc12` [Example 4, N-[3-(1H-tetrazol-5-yl)phenyl]-1H-indazole-3-carboxamide] gave an inhibition at 50 µM of no less than 50%.
In the case of `O=C(Nc1ccc(N2CCOCC2)cc1)c1n[nH]c2ccc(Cl)cc12` [Example 74], the inhibition at 50 µM is reported as no less than 50%.
`O=C(Nc1ccc(N2CCOCC2)cc1)c1n[nH]c2ccc(I)cc12` [Example 52] showed an inhibition at 50 µM of no less than 50%.
Work on `NS(=O)(=O)c1ccc(NC(=O)c2n[nH]c3ccccc23)cc1` [Example 26, 1H-Indazole-3-carboxylic acid (4-sulphamoyl-phenyl)-amide] yielded an inhibition at 50 µM of no less than 50%.
In the case of `O=C(Nc1ccccc1)c1n[nH]c2ccc(CCc3ccccc3)cc12` [Example 87, 5-Phenethyl-1H-indazole-3-carboxylic acid phenylamide], the inhibition at 50 µM is reported as no less than 50%.
Compound `O=C(Nc1ccc(F)cc1)c1n[nH]c2ccc(I)cc12` [Example 58] has an inhibition at 50 µM of no less than 50%.
Work on `O=C(NC1CCN(C(=O)C(F)(F)F)CC1)c1n[nH]c2ccccc12` [Example 66, 1H-Indazole-3-carboxylic acid [1-(2,2,2 trifluoro-acetyl)-Piperidin-4-yl]-amide] yielded an inhibition at 50 µM of no less than 50%.
`O=C(Nc1ccc(S(=O)(=O)N2CCOCC2)cc1)c1n[nH]c2ccccc12` [Example 10, N-[4-(morpholine-4-sulphonyl)phenyl]-1H-indazole-3-carboxamide] gave an inhibition at 50 µM of no less than 50%.
For `O=C(Nc1ccccc1)c1n[nH]c2ccc(N3CCCS3(=O)=O)cc12` [Example 86, 5-(1,1-Dioxo-1lambda*6*-isothiazolidin-2-yl)-1H-indazole-3-carboxylic acid phenylamide], the inhibition at 50 µM was no less than 50%.
For `O=C(Nc1ccc(Cl)nc1)c1n[nH]c2ccccc12` [Example 28, 1H-Indazole-3-carboxylic acid (6-chloro-pyridin-3-yl)-amide], the inhibition at 50 µM was no less than 50%.
In the case of `O=C(Nc1ccccc1)c1n[nH]c2ccc(-c3ccccc3-c3ccccc3)cc12` [Example 85, 5-Biphenyl-2-yl-1H-indazole-3-carboxylic acid phenylamide], the inhibition at 50 µM is reported as no less than 50%.
Work on `Cc1ccc2[nH]nc(C(=O)Nc3ccc(F)cc3)c2c1` [Example 72, 5-Methyl-1H-indazole-3-carboxylic acid (4-fluoro-phenyl)-amide] yielded an inhibition at 50 µM of no less than 50%.
In the case of `CNS(=O)(=O)Cc1ccc(NC(=O)c2n[nH]c3ccc(-c4ccccc4)cc23)cc1` [Example 32], the inhibition at 50 µM is reported as no less than 50%.
For `O=C(Nc1cccnc1Cl)c1n[nH]c2ccc(I)cc12` [Example 44], the inhibition at 50 µM was no less than 50%.
Work on `CS(=O)(=O)NCc1ccc(NC(=O)c2n[nH]c3ccc([N+](=O)[O-])cc23)cc1` [Example 33] yielded an inhibition at 50 µM of no less than 50%.
